How the values were obtained:
[1] = target: T1, homomeric Kv3.4a channels (Rattus norvegicus, UniProt Q63734); experiment: Whole-cell recording of homomeric Kv3.4a channels expressed in HEK293 cells; assay type: cell-based; conditions: n=5
T1 construct: expressed in transfected cells; host or cells: HEK293
T1 sequence (Q63734 1-625): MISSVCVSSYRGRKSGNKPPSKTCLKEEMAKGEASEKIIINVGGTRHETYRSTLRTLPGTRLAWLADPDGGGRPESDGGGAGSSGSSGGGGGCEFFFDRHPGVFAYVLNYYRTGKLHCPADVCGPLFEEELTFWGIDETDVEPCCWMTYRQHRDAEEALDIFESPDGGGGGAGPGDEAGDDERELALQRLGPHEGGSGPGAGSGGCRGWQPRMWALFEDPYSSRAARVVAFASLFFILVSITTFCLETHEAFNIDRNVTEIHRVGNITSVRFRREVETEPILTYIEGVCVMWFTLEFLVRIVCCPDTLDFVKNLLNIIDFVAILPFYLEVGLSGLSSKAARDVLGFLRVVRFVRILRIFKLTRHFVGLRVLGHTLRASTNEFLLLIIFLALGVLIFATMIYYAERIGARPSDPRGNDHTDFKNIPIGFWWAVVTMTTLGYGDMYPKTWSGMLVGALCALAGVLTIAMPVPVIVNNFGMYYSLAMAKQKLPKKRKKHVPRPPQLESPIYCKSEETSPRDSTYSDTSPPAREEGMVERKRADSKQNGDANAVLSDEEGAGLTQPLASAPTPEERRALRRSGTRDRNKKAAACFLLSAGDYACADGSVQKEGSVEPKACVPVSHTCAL
Description: Electrophysiology. Whole-cell recordings used standard techniques^27,28. The internal solution consisted of (in mM): 30-90 K2SO4, 0-60 N-methyl-D-glucamine, 2 MgCl2, 40 HEPES, 5 EGTA, 12 phosphocreatine, 2 Na2ATP, 0.2 Na3GTP, and 0.1 leupeptin, pH 7.2 with H2SO4 (osmolarity 260-270 mOsm/l). The external solution consisted of (in mM): 140 Na-isethionate, 2 KCl, 4 MgCl2, 10 HEPES, 12 glucose and 0.001 TTX, pH 7.35 with NaOH (osmolarity 295-305 mOsm/l). The internal solution for current clamp recordings consisted of (in mM) 110 potassium methylsulphate, 2 MgCl2, 40 HEPES, 5 EGTA, 12 phosphocreatine, 2 Na2ATP, 0.2 Na3GTP, and 0.1 leupeptin, pH 7.2 with H2SO4 (osmolarity 260-270 mOsm/l). In the case of current clamp recordings, TTX was omitted from external solution. For the recordings in the presence of Ca^+2 ions EGTA was omitted from internal solution and 4 mM of MgCl2 was substituted by 2 mM of CaCl2 and 2 mM of MgCl2. […] Recordings were obtained with Axon Instruments 200 patch-clamp amplifier and controlled and monitored with a PC running pClamp software (version 7.0) (Axon Instruments Inc., Union City, Calif.). […] After seal rupture, series resistance (2-10 MΩ) was compensated (75-90%) and periodically monitored. […]
Single cell RT-PCR (scRT-PCR). […] In the case of co-transfection with Kv3.4a and Kv3.1b cDNA, single cell RT-PCR was used to confirm the presence of both mRNAs in the recorded cell. […]

[2] = test system: Kv3 channels in FS neurons; experiment: Whole-cell voltage clamp of Kv3 delayed rectifier currents in acutely dissociated FS neurons; assay type: cell-based, rat
Description: Tissue preparation. […] Hippocampal interneurons and GP were identified as CaMKII negative, GAD67 and parvalbumin positive neurons by single cell RT-PCR detection of corresponding mRNAs following physiology experiments (see below).
Electrophysiology. Whole-cell recordings used standard techniques^27,28. The internal solution consisted of (in mM): 30-90 K2SO4, 0-60 N-methyl-D-glucamine, 2 MgCl2, 40 HEPES, 5 EGTA, 12 phosphocreatine, 2 Na2ATP, 0.2 Na3GTP, and 0.1 leupeptin, pH 7.2 with H2SO4 (osmolarity 260-270 mOsm/l). The external solution consisted of (in mM): 140 Na-isethionate, 2 KCl, 4 MgCl2, 10 HEPES, 12 glucose and 0.001 TTX, pH 7.35 with NaOH (osmolarity 295-305 mOsm/l). The internal solution for current clamp recordings consisted of (in mM) 110 potassium methylsulphate, 2 MgCl2, 40 HEPES, 5 EGTA, 12 phosphocreatine, 2 Na2ATP, 0.2 Na3GTP, and 0.1 leupeptin, pH 7.2 with H2SO4 (osmolarity 260-270 mOsm/l). In the case of current clamp recordings, TTX was omitted from external solution. For the recordings in the presence of Ca^+2 ions EGTA was omitted from internal solution and 4 mM of MgCl2 was substituted by 2 mM of CaCl2 and 2 mM of MgCl2. All drugs were obtained from Sigma (St. Louis, […]) except BDS-I that was obtained from Alomone Labs (Jerusalem, Israel). Solutions were applied by gravity fed sewer pipe system. Recordings were obtained with Axon Instruments 200 patch-clamp amplifier and controlled and monitored with a PC running pClamp software (version 7.0) (Axon Instruments Inc., Union City, Calif.). […] After seal rupture, series resistance (2-10 MΩ) was compensated (75-90%) and periodically monitored. […] Activation data were fit with a Boltzmann equation of the form: 1/(1+exp ((Vh−V)/Vc), V stands for membrane potential. In the case of Kv3.4a current, an estimate of peak current was obtained by single exponential fit of decay phase extrapolated to the start of test pulse. In all other instances the voltage dependence of the currents was obtained from the amplitude of tail currents measured following 200 msec long voltage steps. […]

BDS-I (AAPCFCSGKPGRGDLWILRGTCPGGYGYTSNCYKWPNICCYPH)
effect on homomeric Kv3.4a channel currents [1]: slowed the rising phase of the currents but led to larger currents later in the step | block of TEA-sensitive, Kv3 channel currents in FS neurons [2]: efficiently blocked | effect on delayed rectifier currents evoked by depolarization in FS neurons [2]: slowed the rising phase of delayed rectifier currents evoked by depolarization and reduced their amplitude | time for substantial unblocking of channels containing Kv3.4 subunits ([2]; at +20 mV): more than 5 msec

Source: US7629323B2, “Manipulation of neuronal ion channels” (Northwestern University, priority 2003, dated 2009)
